Laboratory results as given in PubChem BioAssay AID212 (DTP/NCI, 2004).
Where “and” joins values, the source holds several entries; their conditions need not be identical. Equal values may be shown once. Records with an inconclusive call do not appear.

System: BDF1 mice, colon carcinoma 38 sc, T/C %
Assay: NCI In Vivo Anticancer Drug Screen. Data for tumor model Colon Carcinoma 38 (subcutaneous) in B6D2F1 (BDF1) mice
Experimental: The antitumor activity of compounds was measured in mice bearing transplantable tumors. Survival or tumor size were measured and the results are expressed as the measurement made in the treated group (T) divided by the measurement made in the vehicle treated control group (C). The tumor model used in this assay is Colon Carcinoma 38 (subcutaneous) in B6D2F1 (BDF1) mice

[1] = endpoint: median tumor weight (est.), dose: 50.0 mg/kg/injection, schedule: Q07DX002 (ip), vehicle: saline with Tween-80, higher = larger tumour
[2] = endpoint: median tumor weight (est.), dose: 100.0 mg/kg/injection, schedule: Q07DX002 (ip), vehicle: saline with Tween-80, higher = larger tumour
[3] = endpoint: median tumor weight (est.), dose: 200.0 mg/kg/injection, schedule: Q07DX002 (ip), vehicle: saline with Tween-80, higher = larger tumour
[4] = endpoint: median tumor weight (est.), dose: 400.0 mg/kg/injection, schedule: Q07DX002 (ip), vehicle: saline with Tween-80, higher = larger tumour
[5] = endpoint: median tumor weight (est.), dose: 25.0 mg/kg/injection, schedule: Q07DX002 (ip), vehicle: saline with Tween-80, higher = larger tumour

Compound: Cc1cn(C2CC(O)C(CO)O2)c(=O)[nH]c1=O (stereo unspecified)
- T/C (endpoint: median tumor weight (est.), dose: 25.0 mg/kg/injection, schedule: Q07DX003 (ip), vehicle: saline, higher = larger tumour): 54 % of control and 79 % of control
- T/C (endpoint: median tumor weight (est.), dose: 50.0 mg/kg/injection, schedule: Q03HX024 (ip), vehicle: saline, higher = larger tumour): 95 % of control
- T/C (endpoint: median tumor weight (est.), dose: 50.0 mg/kg/injection, schedule: Q07DX003 (ip), vehicle: saline, higher = larger tumour): 76 % of control
- T/C (endpoint: median tumor weight (est.), dose: 100.0 mg/kg/injection, schedule: Q03HX024 (ip), vehicle: saline, higher = larger tumour): 98 % of control
- T/C (endpoint: median tumor weight (est.), dose: 200.0 mg/kg/injection, schedule: Q03HX024 (ip), vehicle: saline, higher = larger tumour): 66 % of control
- T/C (endpoint: median tumor weight (est.), dose: 200.0 mg/kg/injection, schedule: Q07DX003 (ip), vehicle: saline, higher = larger tumour): 90 % of control
- T/C (endpoint: median tumor weight (est.), dose: 400.0 mg/kg/injection, schedule: Q03HX024 (ip), vehicle: saline, higher = larger tumour): 122 % of control
- T/C (endpoint: median tumor weight (est.), dose: 400.0 mg/kg/injection, schedule: Q07DX003 (ip), vehicle: saline, higher = larger tumour): 89 % of control and 101 % of control

Compound: CCN(Cc1ccc(Cl)c(Cl)c1)c1ccc2nc(N)nc(N)c2c1C
- T/C (endpoint: median tumor weight (est.), dose: 6.25 mg/kg/injection, schedule: Q07DX002 (ip), vehicle: distilled water + Tween-80, higher = larger tumour): 165 % of control
- T/C (endpoint: median tumor weight (est.), dose: 12.5 mg/kg/injection, schedule: Q07DX002 (ip), vehicle: distilled water + Tween-80, higher = larger tumour): 206 % of control
- T/C (endpoint: median tumor weight (est.), dose: 100.0 mg/kg/injection, schedule: Q07DX002 (ip), vehicle: distilled water + Tween-80, higher = larger tumour): 46 % of control

Compound: CC(=O)Nc1cscc1NC(C)=O
- T/C [1]: 115 % of control
- T/C [2]: 91 % of control
- T/C [3]: 66 % of control
- T/C [4]: 93 % of control
- T/C (endpoint: median tumor weight (est.), dose: 800.0 mg/kg/injection, schedule: Q07DX002 (ip), vehicle: saline with Tween-80, higher = larger tumour): 73 % of control

Compound: CC(C)[NH-].CC(C)[NH-].[Cl][Pt+2][Cl]
- T/C (endpoint: median tumor weight (est.), dose: 3.12 mg/kg/injection, schedule: Q07DX002 (ip), vehicle: dextrose, higher = larger tumour): 15 % of control
- T/C (endpoint: median tumor weight (est.), dose: 3.13 mg/kg/injection, schedule: Q07DX002 (ip), vehicle: dextrose, higher = larger tumour): 122 % of control
- T/C (endpoint: median tumor weight (est.), dose: 6.25 mg/kg/injection, schedule: Q07DX002 (ip), vehicle: dextrose, higher = larger tumour): 77 % of control
- T/C (endpoint: median tumor weight (est.), dose: 6.25 mg/kg/injection, schedule: Q07DX002 (ip), vehicle: other, higher = larger tumour): 104 % of control
- T/C (endpoint: median tumor weight (est.), dose: 12.5 mg/kg/injection, schedule: Q07DX002 (ip), vehicle: dextrose, higher = larger tumour): 71 % of control
- T/C (endpoint: median tumor weight (est.), dose: 12.5 mg/kg/injection, schedule: Q07DX002 (ip), vehicle: other, higher = larger tumour): 53 % of control
- T/C (endpoint: median tumor weight (est.), dose: 25.0 mg/kg/injection, schedule: Q07DX002 (ip), vehicle: dextrose, higher = larger tumour): 79 % of control and 88 % of control
- T/C (endpoint: median tumor weight (est.), dose: 25.0 mg/kg/injection, schedule: Q07DX002 (ip), vehicle: other, higher = larger tumour): 84 % of control
- T/C (endpoint: median tumor weight (est.), dose: 50.0 mg/kg/injection, schedule: Q07DX002 (ip), vehicle: dextrose, higher = larger tumour): 58 % of control and 71 % of control
- T/C (endpoint: median tumor weight (est.), dose: 50.0 mg/kg/injection, schedule: Q07DX002 (ip), vehicle: other, higher = larger tumour): 122 % of control
- T/C (endpoint: median tumor weight (est.), dose: 100.0 mg/kg/injection, schedule: Q07DX002 (ip), vehicle: other, higher = larger tumour): 52 % of control

Compound: Cc1ccc2c(c1)N=C(Nc1ccccc1)N=S2(C)=O (stereo unspecified)
- T/C (endpoint: median tumor weight (est.), dose: 12.5 mg/kg/injection, schedule: Q07DX002 (ip), vehicle: saline with Tween-80, higher = larger tumour): 76 % of control
- T/C [5]: 85 % of control
- T/C [1]: 82 % of control
- T/C [3]: 105 % of control

Compound: NC(=O)c1[nH]nc(C2OC(CO)C(O)C2O)c1O (stereo unspecified)
- T/C (endpoint: median survival time, dose: 0.75 mg/kg/injection, schedule: Q04DX004 (ip), vehicle: saline, higher = longer survival): 77 % of control and 79 % of control
- T/C (endpoint: median survival time, dose: 1.5 mg/kg/injection, schedule: Q04DX004 (ip), vehicle: saline, higher = longer survival): 90 % of control and 105 % of control
- T/C (endpoint: median survival time, dose: 3.0 mg/kg/injection, schedule: Q04DX004 (ip), vehicle: saline, higher = longer survival): 63 % of control and 65 % of control
- T/C (endpoint: median survival time, dose: 6.0 mg/kg/injection, schedule: Q04DX004 (ip), vehicle: saline, higher = longer survival): 59 % of control
- T/C (endpoint: median survival time, dose: 12.0 mg/kg/injection, schedule: Q04DX004 (ip), vehicle: saline, higher = longer survival): 43 % of control
- T/C (endpoint: median tumor weight (est.), dose: 0.31 mg/kg/injection, schedule: Q07DX003 (ip), vehicle: saline, higher = larger tumour): 117 % of control
- T/C (endpoint: median tumor weight (est.), dose: 0.62 mg/kg/injection, schedule: Q07DX003 (ip), vehicle: saline, higher = larger tumour): 90 % of control
- T/C (endpoint: median tumor weight (est.), dose: 1.25 mg/kg/injection, schedule: Q07DX003 (ip), vehicle: saline, higher = larger tumour): 97 % of control
- T/C (endpoint: median tumor weight (est.), dose: 4.32 mg/kg/injection, schedule: Q04DX004 (ip), vehicle: saline, higher = larger tumour): 81 % of control
- T/C (endpoint: median tumor weight (est.), dose: 5.0 mg/kg/injection, schedule: Q07DX002 (ip), vehicle: saline, higher = larger tumour): 100 % of control
- T/C (endpoint: median tumor weight (est.), dose: 5.0 mg/kg/injection, schedule: Q07DX003 (ip), vehicle: saline, higher = larger tumour): 93 % of control
- T/C (endpoint: median tumor weight (est.), dose: 7.2 mg/kg/injection, schedule: Q04DX004 (ip), vehicle: saline, higher = larger tumour): 61 % of control
- T/C (endpoint: median tumor weight (est.), dose: 10.0 mg/kg/injection, schedule: Q07DX002 (ip), vehicle: saline, higher = larger tumour): 86 % of control
- T/C (endpoint: median tumor weight (est.), dose: 10.0 mg/kg/injection, schedule: Q07DX003 (ip), vehicle: saline, higher = larger tumour): 82 % of control
- T/C (endpoint: median tumor weight (est.), dose: 12.0 mg/kg/injection, schedule: Q04DX004 (ip), vehicle: saline, higher = larger tumour): 17 % of control

Compound: C#CCN(Cc1ccc2nc(N)[nH]c(=O)c2c1)c1ccc(C(=O)NC(CCC(=O)O)C(=O)O)cc1 (stereo unspecified)
- T/C (endpoint: median tumor weight (est.), dose: 50.0 mg/kg/injection, schedule: Q07DX002 (ip), vehicle: sodium bicarbonate, higher = larger tumour): 60 % of control
- T/C (endpoint: median tumor weight (est.), dose: 100.0 mg/kg/injection, schedule: Q07DX002 (ip), vehicle: sodium bicarbonate, higher = larger tumour): 70 % of control
- T/C (endpoint: median tumor weight (est.), dose: 200.0 mg/kg/injection, schedule: Q07DX002 (ip), vehicle: sodium bicarbonate, higher = larger tumour): 49 % of control
- T/C (endpoint: median tumor weight (est.), dose: 400.0 mg/kg/injection, schedule: Q07DX002 (ip), vehicle: sodium bicarbonate, higher = larger tumour): 51 % of control

Compound: CC1(C)CC2(C)OC2C2(C1)N=NC(=Nc1ccccc1)O2 (stereo unspecified)
- T/C [1]: 119 % of control
- T/C [2]: 101 % of control
- T/C [3]: 213 % of control

Compound: CNc1cccnc1/C=N/NC(N)=S
- T/C [5]: 119 % of control
- T/C [1]: 95 % of control
- T/C [3]: 45 % of control and 66 % of control
- T/C [4]: 32 % of control and 33 % of control

Compound: CN1CCN(c2ccc3nc(-c4ccc5nc(-c6ccc(O)cc6)[nH]c5c4)[nH]c3c2)CC1
- T/C (endpoint: median tumor weight (est.), dose: 25.0 mg/kg/injection, schedule: Q07DX002 (ip), vehicle: saline, higher = larger tumour): 119 % of control
- T/C (endpoint: median tumor weight (est.), dose: 50.0 mg/kg/injection, schedule: Q07DX002 (ip), vehicle: saline, higher = larger tumour): 116 % of control
- T/C (endpoint: median tumor weight (est.), dose: 100.0 mg/kg/injection, schedule: Q07DX002 (ip), vehicle: saline, higher = larger tumour): 70 % of control
- T/C (endpoint: median tumor weight (est.), dose: 200.0 mg/kg/injection, schedule: Q07DX002 (ip), vehicle: saline, higher = larger tumour): 97 % of control

Compound: O=C1C=CC(=O)N1c1ccc(Cl)cc1
- T/C (endpoint: median tumor weight (est.), dose: 1.25 mg/kg/injection, schedule: Q07DX002 (ip), vehicle: Klucel (hydroxypropylcellulose) (HPC), higher = larger tumour): 32 % of control
- T/C (endpoint: median tumor weight (est.), dose: 10.0 mg/kg/injection, schedule: Q07DX002 (ip), vehicle: Klucel (hydroxypropylcellulose) (HPC), higher = larger tumour): 61 % of control and 73 % of control
- T/C (endpoint: median tumor weight (est.), dose: 20.0 mg/kg/injection, schedule: Q07DX002 (ip), vehicle: Klucel (hydroxypropylcellulose) (HPC), higher = larger tumour): 60 % of control and 67 % of control

Compound: CCc1c(CC(=O)O)c2cc(C)ccc2n1Cc1ccc(Cl)cc1
- T/C (endpoint: median tumor weight (est.), dose: 3.13 mg/kg/injection, schedule: Q07DX002 (ip), vehicle: Klucel (hydroxypropylcellulose) (HPC), higher = larger tumour): 107 % of control
- T/C (endpoint: median tumor weight (est.), dose: 6.25 mg/kg/injection, schedule: Q07DX002 (ip), vehicle: Klucel (hydroxypropylcellulose) (HPC), higher = larger tumour): 45 % of control
- T/C (endpoint: median tumor weight (est.), dose: 6.25 mg/kg/injection, schedule: Q07DX003 (ip), vehicle: Klucel (hydroxypropylcellulose) (HPC), higher = larger tumour): 72 % of control
- T/C (endpoint: median tumor weight (est.), dose: 12.5 mg/kg/injection, schedule: Q07DX002 (ip), vehicle: Klucel (hydroxypropylcellulose) (HPC), higher = larger tumour): 76 % of control
- T/C (endpoint: median tumor weight (est.), dose: 12.5 mg/kg/injection, schedule: Q07DX003 (ip), vehicle: Klucel (hydroxypropylcellulose) (HPC), higher = larger tumour): 74 % of control
- T/C (endpoint: median tumor weight (est.), dose: 25.0 mg/kg/injection, schedule: Q07DX002 (ip), vehicle: Klucel (hydroxypropylcellulose) (HPC), higher = larger tumour): 60 % of control
- T/C (endpoint: median tumor weight (est.), dose: 25.0 mg/kg/injection, schedule: Q07DX003 (ip), vehicle: Klucel (hydroxypropylcellulose) (HPC), higher = larger tumour): 97 % of control
- T/C (endpoint: median tumor weight (est.), dose: 50.0 mg/kg/injection, schedule: Q07DX002 (ip), vehicle: Klucel (hydroxypropylcellulose) (HPC), higher = larger tumour): 98 % of control
- T/C (endpoint: median tumor weight (est.), dose: 50.0 mg/kg/injection, schedule: Q07DX003 (ip), vehicle: Klucel (hydroxypropylcellulose) (HPC), higher = larger tumour): 116 % of control
- T/C (endpoint: median tumor weight (est.), dose: 100.0 mg/kg/injection, schedule: Q07DX002 (ip), vehicle: Klucel (hydroxypropylcellulose) (HPC), higher = larger tumour): 159 % of control
- T/C (endpoint: median tumor weight (est.), dose: 100.0 mg/kg/injection, schedule: Q07DX003 (ip), vehicle: Klucel (hydroxypropylcellulose) (HPC), higher = larger tumour): 120 % of control
- T/C (endpoint: median tumor weight (est.), dose: 200.0 mg/kg/injection, schedule: Q07DX003 (ip), vehicle: Klucel (hydroxypropylcellulose) (HPC), higher = larger tumour): 48 % of control
